Assay results published in patent publication US20040191842A1, “Chemopreventive and therapeutic aspects of polyphenolic compositions and assays” (Medical College of Georgia Research Institute, Inc., priority 2002, published 2004).
“Also recorded” adds a separate entry of the source.

What was measured:
[1] = test system: NHEK; assay: MTT assay (SDH activity), NHEK; assay type: cell-based, human; settings: EGCG at various concentrations or 0.2 mg/ml GTP, 24 h
From the text: Succinate dehydrogenase activity assay (MTT assay).

[2] = daily topical 30 mg/ml EGCG for 30 days; cited from earlier work
[3] = test system: normal human primary epidermal keratinocytes; assay: Immunocytochemistry of differentiation markers in keratinocytes; assay type: cell-based; settings: 50-100 μM EGCG, 24 hours
Method: Immunocytochemistry. Normal human keratinocytes were seeded in 8-well chamber slides (Nagle Nunc International, Naperville, Ill.) 12 hours prior to EGCG treatment. At the end of a 24-hour treatment, the slides were washed with PBS and fixed in a cold 4% paraformaldehyde solution for 10 minutes. […] The primary antibodies, rabbit-anti-human p57 polyclonal antibody C-19, rabbit anti-human keratin 1, and filaggrin antibodies were applied for 1 hour at 37° C. at the dilutions recommended by the manufacturers. The streptavidin detection technique (Biogenex, USA) was used with 3-amino-9-ethylcarbazole as chromogen. Negative control sections consisted of tissues treated with 1% diluted normal goat serum instead of primary antibody. Mayer's hematoxylin was used as a counter-stain.

[4] = test system: caspase 14 and p21; assay: Caspase 14 and p21 expression in OSC2 cells; assay type: cell-based, human; settings: EGCG
Method: To identify additional factors those suppress EGCG -induced apoptosis and facilitate cell differentiation in NHEK, exponentially growing NHEK (Cambrex, Baltimore, Md.) were exposed to 100 μM EGCG for 0, 2, 6 and 24 hours, prior to total RNA isolation using the Qiagen RNeasy mini kit (Valencia, Calif.), which was followed by RT-PCR labeling and hybridization with the Human Apoptosis Macroarray membrane (Sigma-Genosys, The Woodlands, Tex.). Total cell lysates also were collected following a variety of EGCG treatments. The protein levels for caspase 14 and p21 were determined by immuno-blotting using antibodies specific for caspase 14 and p21 (Santa Cruz Biotechnology, Santa Cruz, Calif.).
Normal human epidermal keratinocytes (NHEK; Cambrex), and oral squamous cell carcinoma (OSC2) cells, originally from gingival tissue, were compared. Exponentially growing cells were exposed to 50 or 100 μM EGCG for 0 hours, 2 hours, 6 hours or 24 hours. Cells were harvested for total RNA, which was examined by apoptosis macroarrays (Sigma Genosys), followed by phosphorimagery and data analysis (GeneSpring). Protein production of expressed genes was confirmed by Western blotting of whole cell lysates.

[5] = test system: caspase 3; assay: Caspase 3 activity assay, normal human epidermal keratinocytes; assay type: cell-based; settings: EGCG 0 to 200 μM or 0.2 mg/ml GTPPs, 24 h
Method: (§1) Caspase 3 activity assay. The Caspase 3 Apoptosis Detection Kit was purchased from Santa Cruz Biotech. Inc. In a 24 well tissue culture plate, 10^5 cells/well of control or treated cells in triplicates were plated. […] To each well, 100 μl of 2×reaction buffer was added with 10 mM DTT. Finally, 5 μl of DEVD-AFC substrate was added to each well containing cell lysates. The reaction mixtures were incubated for 1 hour at 37° C. The caspase 3 activity in each well was measured using a fluorescence plate reader set for 405 nanometer (nm) excitation and 505 nm emission.
as §1, with “of” for “of control or treated”, “[…]” for “10 mM”, “fluorescence microplate” for “fluorescence plate”, “405 nm” for “405 nanometer (nm)”
Caspase 3 activity assay. […] The reaction mixtures were incubated for 1 hour at 37° C., and caspase 3 activity in each well was measured using a fluorescence micro-plate reader at a wavelength of 405 nm for excitation and 505 nm for emission.

[6] = test system: OSC-4 cells; assay: Intracellular ROS levels (DFDA assay), OSC-4 cells; assay type: cell-based, human; settings: for intracellular ROS levels vs control: 120 minute time point
Method: (§2) Measurement of intracellular ROS levels. The ROS assay measures the accumulation of intracellular ROS levels. The non-fluorescent dye DFDA passively diffuses into cells, where the acetates are cleaved by intracellular esterases. […] Thus, values of the fluorescence in the cell cultures are constantly rising in this assay. Cells (1.5×10^4 cells/well) were incubated with Hallam's physiological saline (HPS) containing DFDA (10 μM) in a 96-well microplate for 30 minutes at 37° C. After the incubation, cells were washed three times with HPS and then incubated with HPS containing EGCG (15-200 μM) or diamide (5 mM) for the indicated time periods. The intracellular ROS levels were measured by using a fluorescence plate reader (BIO-TEK FL600, Bio-Tek Instruments, Inc., Winooski, Vt.), at an excitation wavelength of 485 nm and an emission wavelength of 530 nm.
as §2, with “assay (DFDA assay)” for “assay”, “dye dichlorofluorescein diacetate (DFDA)” for “dye DFDA”, “this assay due to the accumulation of ROS.” for “this assay.”, “EGCG (50-200” for “EGCG (15-200”, “indicated times.” for “indicated time periods.”

In the case of O=C(O[C@@H]1Cc2c(O)cc(O)cc2O[C@@H]1c1cc(O)c(O)c(O)c1)c1cc(O)c(O)c(O)c1 [EGCG, (−)-epigallocatechin-3-gallate], the “SDH activity (MTT assay)” value [1] is given as “not significantly affected”, the dermal toxicity [2] is given as “failed to induce dermal toxicity” and the “differentiation (p57/KIP2, keratin 1, filaggrin)” value [3] is given as “underwent differentiation in 24 hours”. For the same compound, the “caspase 14 and p21 levels” value ([4]; identical conditions to NHEK) was “failed to show increased caspase 14 or decreased p21”, the “p21 mRNA elevated” value ([4]; within 2 hours) was 3 fold and the “caspase 3 activity” value [5] was “only exhibited basal levels of caspase 3 activities; also recorded: not significantly affected”. For the same compound, the “intracellular ROS levels vs controls” value ([6]; 50 μM EGCG, 60 minute exposure) was “remained comparable to the controls”, the “intracellular ROS levels vs control” value ([6]; 50 μM EGCG) was “ROS levels identical to the control cells” and the “intracellular ROS levels vs control” value ([6]; 200 μM EGCG) was “remained higher than the control cells”. The “time at which rate of ROS production peaked” value ([6]; EGCG) was 60 min and the “H2O2 concentration producing ROS equivalent to 200 μM EGCG” value ([6]; first hour) was 100 µM.
